ChEMBL document CHEMBL5390204, “Persephacin Is a Broad-Spectrum Antifungal Aureobasidin Metabolite That Overcomes Intrinsic Resistance in Aspergillus fumigatus” (J Nat Prod, 2023)
The source made the active and inactive calls.

Key:
Format in all cases: functional, organism-based
Details in all cases: time 4.0 day
Candida albicans [1] = assay: Antifungal activity against Candida albicans SC5314 infected in pig cornea assessed as suppression of fungal growth at 5 % administered post fungal infection measured after 4 days by microscopic analysis
Candida albicans [2] = assay: Antifungal activity against fluconazole-resistant Candida albicans SC5314 infected in pig cornea assessed as suppression of fungal growth at 5 % administered post fungal infection measured after 4 days by microscopic analysis
Aspergillus fumigatus = assay: Antifungal activity against Aspergillus fumigatus NRRL5109 infected in pig cornea assessed as suppression of fungal growth at 5 % administered post fungal infection measured after 4 days by microscopic analysis

Measured: Activity

C[C@@H]1C/C=C/C=C/C=C/C=C/[C@H](O[C@@H]2O[C@H](C)[C@@H](O)[C@H](N)[C@@H]2O)C[C@@H]2O[C@](O)(C[C@@H](O)C[C@H]3O[C@@H]3/C=C/C(=O)O1)C[C@H](O)[C@H]2C(=O)O
active: all assays above
